We go through three compounds from US20090028888A1, “Cancer Antigen Mage-A9 and Uses Thereof” (priority 2005, published 2009).

Assay [1] deals with CT genes. The conditions noted are these: cited from earlier work; for expression of CT genes, combination with 5-AZA-DC: HDAC inhibitor combined with 5-AZA-DC.
Assay [2] has as its system MAGE-A9 gene expression in bladder cancer cell lines. Briefly: RT-PCR analysis of MAGE-A9 gene expression induction in bladder cancer cell lines. The conditions noted are these: MGH-U3, 5637 and VMCUB-3; 1 μM 5-AZA-DC alone, 96 hours.

`Nc1ncn([C@H]2C[C@H](O)[C@@H](CO)O2)c(=O)n1` [5-AZA-DC, 5-aza-2′-deoxycytidine]: the “induction of the expression of several CT genes” value in assay [1] (single agent) is “potent inducers”. For the same compound, in assay [2], the “MAGE-A9 mRNA induction” value was “strongly induced”.
On to `C/C=C1\NC(=O)[C@H]2CSSCC/C=C/[C@H](CC(=O)N[C@H](C(C)C)C(=O)N2)OC(=O)[C@H](C(C)C)NC1=O` [depsipetide], for which, in assay [1], the “expression of CT genes, combination with 5-AZA-DC” value is given as “stronger expression”.
`CC(/C=C/C(=O)NO)=C\[C@@H](C)C(=O)c1ccc(N(C)C)cc1` [trichostatin A]: in assay [1], the “expression of CT genes, combination with 5-AZA-DC” value is “stronger expression”.
